# Measured values from patent publication US7485637B2, “Benzoyl-tetrahydropiperidine derivatives” (Hoffmann-La Roche Inc., priority 2005, dated 2009).
# Biological target: T1, mGlyT-1b (Mus musculus, UniProt P28571)
# T1 construct: host or cells: Flp-in-CHO
# T1 sequence (P28571 1-651 isoform P28571-2): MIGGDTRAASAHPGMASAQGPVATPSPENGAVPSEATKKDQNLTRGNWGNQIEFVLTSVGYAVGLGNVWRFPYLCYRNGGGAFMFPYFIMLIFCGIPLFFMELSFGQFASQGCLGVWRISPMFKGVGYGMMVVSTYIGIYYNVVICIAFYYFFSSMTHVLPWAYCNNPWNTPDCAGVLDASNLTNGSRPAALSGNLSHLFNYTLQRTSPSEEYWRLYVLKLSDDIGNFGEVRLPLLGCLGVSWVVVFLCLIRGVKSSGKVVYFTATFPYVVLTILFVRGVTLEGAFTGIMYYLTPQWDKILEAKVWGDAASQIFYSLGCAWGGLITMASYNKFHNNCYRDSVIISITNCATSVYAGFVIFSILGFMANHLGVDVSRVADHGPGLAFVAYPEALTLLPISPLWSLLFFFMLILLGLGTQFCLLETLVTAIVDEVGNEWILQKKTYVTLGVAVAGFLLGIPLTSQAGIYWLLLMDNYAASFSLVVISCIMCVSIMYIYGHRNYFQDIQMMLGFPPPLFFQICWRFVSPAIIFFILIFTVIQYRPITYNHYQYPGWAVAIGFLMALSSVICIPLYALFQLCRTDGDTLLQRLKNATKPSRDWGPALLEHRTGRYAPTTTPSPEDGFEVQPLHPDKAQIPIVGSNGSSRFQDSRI
# Assay: Glycine Uptake Inhibition Assay (mGlyT-1b)
# Type: cell-based
# Conditions: [3H]-glycine uptake, Flp-in-CHO cells transfected with mGlyT-1b cDNA, 20 min preincubation at 22° C.; read-out: IC50 (μM) at GlyT-1
# Experimental: DMEM complete medium: Nutrient mixture F-12 (Gibco Life-technologies), fetal bovine serum (FBS) 5%, (Gibco life technologies), Penicillin/Streptomycin 1% (Gibco life technologies), Hygromycin 0.6 mg/ml (Gibco life technologies), Glutamine 1 mM Gibco life technologies)
# Uptake buffer (UB): 150 mM NaCl, 10 mM Hepes-Tris, pH 7.4, 1 mM CaCl2, 2.5 mM KCl, 2.5 mM MgSO4, 10 mM (+) D-glucose.
# Flp-in™-CHO (Invitrogen Cat n° R758-07) cells stably transfected with mGlyT1b cDNA.
# Glycine Uptake Inhibition Assay (mGlyT-1b)
# On day 1 mammalian cells, (Flp-in™-CHO), transfected with mGlyT-1b cDNA, were plated at the density of 40,000 cells/well in complete F-12 medium, without hygromycin in 96-well culture plates. On day 2, the medium was aspirated and the cells were washed twice with uptake buffer (UB). The cells were then incubated for 20 min at 22° C. with either (i) no potential competitor, (ii) 10 mM non-radioactive glycine, (iii) a concentration of a potential inhibitor. A range of concentrations of the potential inhibitor was used to generate data for calculating the concentration of inhibitor resulting in 50% of the effect (e.g. IC50, the concentration of the competitor inhibiting glycine uptake of 50%). A solution was then immediately added containing [^3H]-glycine 60 nM (11-16 Ci/mmol) and 25 μM non-radioactive glycine. The plates were incubated with gentle shaking and the reaction was stopped by aspiration of the mixture and washing (three times) with ice-cold UB. The cells were lysed with scintillation liquid, shaken 3 hours and the radioactivity in the cells was counted using a scintillation counter.
row,IC50 [µM],Structure (SMILES)
1,0.87,"CC(C)Oc1ccc(S(C)(=O)=O)cc1C(=O)N1CC=C(c2ccc(S(C)(=O)=O)cc2)CC1 [Example 7, (2-Isopropoxy-5-methanesulfonyl-phenyl)-[4-(4-methanesulfonyl-phenyl)-3,6-dihydro-2H-pyridin-1-yl]-methanone]"
2,0.201,"CS(=O)(=O)c1ccc(C2=CCN(C(=O)c3cc(S(C)(=O)=O)ccc3OC3CCCC3)CC2)cc1 [Example 8, (2-Cyclopentyloxy-5-methanesulfonyl-phenyl)-[4-(4-methanesulfonyl-phenyl)-3,6-dihydro-2H-pyridin-1-yl]-methanone]"
3,0.28,"CC(C)Oc1ccc(C#N)cc1C(=O)N1CC=C(c2ccc(Cl)cc2)CC1 [Example 9, 3-[4-(4-Chloro-phenyl)-3,6-dihydro-2H-pyridine-1-carbonyl]-4-isopropoxy-benzonitrile]"
4,0.056,"CS(=O)(=O)c1ccc(OCC2CC2)c(C(=O)N2CC=C(c3ccc(Cl)cc3)CC2)c1 [Example 10, [4-(4-Chloro-phenyl)-3,6-dihydro-2H-pyridin-1-yl]-(2-cyclopropylmethoxy-5-methanesulfonyl-phenyl)-methanone]"

# Continued, compound first:
row,Structure (SMILES),IC50 [µM]
1,"O=C(c1cc([N+](=O)[O-])ccc1N1CCOCC1)N1CC=C(c2ccccc2)CC1 [Example 1, (2-Morpholin-4-yl-5-nitro-phenyl)-(4-phenyl-3,6-dihydro-2H-pyridin-1-yl)-methanone]",0.803
2,"O=C(c1cc([N+](=O)[O-])ccc1N1CCOCC1)N1CC=C(c2ccc(Cl)cc2)CC1 [Example 2, [4-(4-Chloro-phenyl)-3,6-dihydro-2H-pyridin-1-yl]-(2-morpholin-4-yl-5-nitrophenyl) methanone]",0.432
3,"N#Cc1ccc(C2=CCN(C(=O)c3cc([N+](=O)[O-])ccc3N3CCOCC3)CC2)cc1 [Example 3, 4-[1-(2-Morpholin-4-yl-5-nitro-benzoyl)-1,2,3,6-tetrahydro-pyridin-4-yl]benzonitrile]",0.27
4,"CS(=O)(=O)c1ccc(OCC(F)(F)F)c(C(=O)N2CC=C(c3ccc(C(F)(F)F)cc3)CC2)c1 [Example 4, [5-Methanesulfonyl-2-(2,2,2-trifluoro-ethoxy)-phenyl]-[4-(4-trifluoromethyl-phenyl)3,6-dihydro-2H-pyridin-1-yl]-methanone]",0.122
5,"CS(=O)(=O)c1ccc(N2CCOCC2)c(C(=O)N2CC=C(c3ccc(C(F)(F)F)cc3)CC2)c1 [Example 5, (5-Methanesulfonyl-2-morpholin-4-yl-phenyl)-[4-(4-trifluoromethyl-phenyl)-3,6 dihydro-2H-pyridin-1-yl]-methanone]",0.232
6,"CS(=O)(=O)c1ccc(C2=CCN(C(=O)c3cc([N+](=O)[O-])ccc3N3CCOCC3)CC2)cc1 [Example 6, [4-(4-Methanesulfonyl-phenyl)-3,6-dihydro-2H-pyridin-1-yl]-(2-morpholin-4-yl-5-nitro-phenyl)-methanone]",0.251
